Like-named read-outs stand apart in the source and are kept apart here.
How the values were obtained:
[1] = biological target: T1, NET (norepinephrine transporter) (Rattus norvegicus, UniProt Q63380); assay: In vitro determination of NET reuptake inhibition ([3H]Nixosetine binding, rat brain cortex)
T1 construct: Cortex from rat brain was collected and homogenised; from tissue; host or cells: rat brain cortex
Description: In Vitro Determination of NET Reuptake Inhibition
Cortex from rat brain was collected and homogenised using an Ultra-Turrax T25 and a Dual homogeniser in ice-cold homogenising buffer containing Tris, NaCl and KCl (50 mM, 120 mM and 5 mM, respectively, pH 7.4) prior to dilution to an appropriate protein concentration optimised for specific and non-specific binding. […] Membrane-bound activity was detected by filtration through a Packard Filtermate harvester onto GF/B Unifilterplates, washed with ice-cold Tris-HCl buffer, containing NaCl and KCl (50 mM, 120 mM and 4 mM; pH 7.4; 6×0.5 ml). Filters were allowed to dry for 24 h before adding scintillation fluid. Scintillation fluid was allowed to saturate filters for 24 h before counting in a Topcount scintillation counter. Percentage specific bound and competition binding curves were calculated using S-Plus software (Insightful).

[2] = biological target: T2, human cloned 5-HT2C receptor, expressed in CHO cells (Homo sapiens, UniProt P28335); assay: In vitro binding affinity for 5-HT2C receptor ([3H]mesulergine radioligand binding)
T2 construct: expressed in transfected cells; host or cells: CHO cells
T2 sequence (P28335 33-458): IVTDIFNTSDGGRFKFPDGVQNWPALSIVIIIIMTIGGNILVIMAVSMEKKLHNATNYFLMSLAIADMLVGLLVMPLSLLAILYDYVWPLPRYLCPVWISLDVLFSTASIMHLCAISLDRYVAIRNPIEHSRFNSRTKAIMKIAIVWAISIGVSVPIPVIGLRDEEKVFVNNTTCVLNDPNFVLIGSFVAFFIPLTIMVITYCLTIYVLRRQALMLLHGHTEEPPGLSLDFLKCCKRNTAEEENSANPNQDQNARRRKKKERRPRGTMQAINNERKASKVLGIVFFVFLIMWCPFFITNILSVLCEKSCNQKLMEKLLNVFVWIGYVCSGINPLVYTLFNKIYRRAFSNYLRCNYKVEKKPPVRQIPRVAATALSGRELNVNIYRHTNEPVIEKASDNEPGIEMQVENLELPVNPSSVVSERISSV
Description: In Vitro Binding Affinity for 5-HT2A and 5-HT2C Receptors
The interaction of the compounds of Formula (I) with 5-HT2A and 5-HT2C receptors was assessed in in vitro radioligand binding experiments. […] During the incubation, the radioligands bind to the receptor. When equilibrium of binding is reached, the receptor bound radioactivity is separated from the non-bound radioactivity, and the receptor bound activity is counted. The interaction of the test compounds with the receptors is assessed in competition binding experiments. Various concentrations of the test compound are added to the incubation mixture containing the tissue preparation and the radioligand. Binding of the radioligand will be inhibited by the test compound in proportion to its binding affinity and its concentration.

[3] = biological target: T3, human Dopamine D2L receptor (Homo sapiens, UniProt P14416); assay: In vitro binding affinity for human D2L receptor ([3H]Spiperone binding)
T3 construct: expressed in transfected cells; host or cells: CHO cells
T3 sequence (P14416 whole entry): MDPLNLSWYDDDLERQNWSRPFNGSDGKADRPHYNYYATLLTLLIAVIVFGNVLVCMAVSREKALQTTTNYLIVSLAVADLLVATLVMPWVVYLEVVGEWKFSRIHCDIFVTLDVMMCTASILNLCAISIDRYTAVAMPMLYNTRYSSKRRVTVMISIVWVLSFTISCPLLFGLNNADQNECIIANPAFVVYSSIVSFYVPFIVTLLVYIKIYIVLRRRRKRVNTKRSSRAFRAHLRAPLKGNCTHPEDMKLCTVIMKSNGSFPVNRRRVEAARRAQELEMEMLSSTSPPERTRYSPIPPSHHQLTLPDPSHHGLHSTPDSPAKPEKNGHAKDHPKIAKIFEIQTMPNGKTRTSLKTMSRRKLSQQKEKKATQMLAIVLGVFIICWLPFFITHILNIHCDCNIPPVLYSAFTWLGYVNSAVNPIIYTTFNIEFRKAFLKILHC
Description: In Vitro Binding Affinity for Human D2L Receptor
Frozen membranes of human Dopamine D2L receptor-transfected CHO cells were thawed, briefly homogenised using an Ultra-Turrax T25 homogeniser and diluted in Tris-HCl assay buffer containing NaCl, CaCl2, MgCl2, KCl (50, 120, 2, 1, and 5 mM respectively, adjusted to pH 7.7 with HCl) to an appropriate protein concentration optimised for specific and non-specific binding. Radioligand [^3H]Spiperone (NEN, specific activity ˜70 Ci/mmol) was diluted in assay buffer at a concentration of 2 nmol/L. Prepared radioligand (50 μl), along with 50 μl of either the 10% DMSO control, Butaclamol (10^−6 mol/l final concentration), or compound of interest, was then incubated (30 min, 37° C.) with 400 μl of the prepared membrane solution. Membrane-bound activity was filtered through a Packard Filtermate harvester onto GF/B Unifilterplates and washed with ice-cold Tris-HCl buffer (50 mM; pH 7.7; 6×0.5 ml). Filters were allowed to dry before adding scintillation fluid and counting in a Topcount scintillation counter. Percentage specific bound and competition binding curves were calculated using S-Plus software (Insightful).

[4] = rat brain cortex, read-out: NET pIC50 (converted)
[5] = human cloned 5-HT2C receptor, read-out: 5-HT2C pIC50 (converted)
[6] = human D2L receptor-transfected CHO cell membranes, read-out: D2L pIC50 (converted)
[7] = human D2L receptor-transfected CHO cell membranes

T1 sequence (Q63380 1-617): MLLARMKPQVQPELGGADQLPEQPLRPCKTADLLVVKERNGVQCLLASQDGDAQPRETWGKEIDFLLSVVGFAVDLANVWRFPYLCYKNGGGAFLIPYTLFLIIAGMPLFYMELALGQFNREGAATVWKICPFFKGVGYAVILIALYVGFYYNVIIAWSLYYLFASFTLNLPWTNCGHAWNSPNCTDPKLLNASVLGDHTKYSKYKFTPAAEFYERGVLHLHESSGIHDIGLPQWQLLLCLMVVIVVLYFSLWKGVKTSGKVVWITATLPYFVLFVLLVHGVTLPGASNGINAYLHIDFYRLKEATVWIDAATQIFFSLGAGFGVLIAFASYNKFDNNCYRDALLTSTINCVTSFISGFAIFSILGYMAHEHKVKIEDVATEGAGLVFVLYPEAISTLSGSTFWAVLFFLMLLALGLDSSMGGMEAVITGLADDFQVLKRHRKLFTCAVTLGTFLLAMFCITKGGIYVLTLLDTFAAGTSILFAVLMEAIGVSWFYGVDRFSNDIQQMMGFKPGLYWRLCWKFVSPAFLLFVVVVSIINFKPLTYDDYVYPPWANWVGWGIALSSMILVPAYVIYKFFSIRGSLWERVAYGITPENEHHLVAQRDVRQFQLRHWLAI

| IC50 [1, 4] | IC50 [2, 5] | IC50 [3, 6] | Compound | also measured |
| --- | --- | --- | --- | --- |
| 7240 nM | < 1 nM | 2.09 nM | CC(=O)OC1CCN(C[C@H]2C[C@@H]3c4ccccc4Cc4ccc(F)cc4[C@@H]3O2)CC1 [Compound 166] |  |
| 2400 nM | 1.1 nM | 17.4 nM | CC1c2ccccc2C2CC(CN3CCC(O)C3)OC2c2cc(F)ccc21 (mixture of isomers) [Compound 46] |  |
| > 10000 nM | 0.912 nM | 16.2 nM | OCC1CC2CN(C[C@H]3C[C@@H]4c5ccccc5Cc5ccc(F)cc5[C@@H]4O3)CCC2O1 (stereo partly drawn) [Compound 274, [2R-(2α, 3aα, 12bβ)]-(2′RS,3a′RS, 7a′RS)[5-(11-fluoro-3,3a,8,12b-tetrahydro-2H-1-oxa-dibenzo[e,h]azulen-2-ylmethyl)-octahydro-furo[3,2-c]pyridin-2-yl]-methanol.oxalate (1:1)] |  |
| 8510 nM | 1 nM | 4.57 nM | O=C(NCc1ccccn1)C1CCN(CC2CC3c4ccccc4Cc4ccc(F)cc4C3O2)CC1 (stereo not drawn) [Compound 197] |  |
| > 10000 nM | 1.82 nM | 12.6 nM | OC1CCCN(CC2CC3c4ccccc4Cc4ccc(F)cc4C3O2)C1 (single isomer, unassigned) [Compound 143] |  |
| 8910 nM | 4.27 nM | 4.57 nM | CCCNC(=O)NC1CCN(C[C@H]2C[C@@H]3c4ccccc4Cc4ccc(F)cc4[C@@H]3O2)CC1 [Compound 244] |  |
| 6460 nM | 44.7 nM | 44.7 nM | NCCNC(=S)NC1CCN(CC2CC3c4ccccc4Cc4ccc(F)cc4C3O2)CC1 (stereo not drawn) [Compound 256] |  |
| 3470 nM | 20 nM | 12.3 nM | Fc1ccc2c(c1)C1OC(CN3CCC(NC(=S)Nc4cccnc4)CC3)CC1c1ccccc1C2 (stereo not drawn) [Compound 254] |  |
| 3240 nM | 6.61 nM | 11.5 nM | COCCNC(=S)NC1CCN(CC2CC3c4ccccc4Cc4ccc(F)cc4C3O2)CC1 (stereo not drawn) [Compound 252] |  |
| > 10000 nM | 1.02 nM | 3.63 nM | CCOC(=O)C1CCN(C[C@H]2C[C@@H]3c4ccccc4Cc4ccc(F)cc4[C@@H]3O2)CC1 [Compound 162] |  |
| 9120 nM | 11.2 nM | 5.25 nM | O=C(NC1CCN(CC2CC3c4ccccc4Cc4ccc(F)cc4C3O2)CC1)c1ccccc1Cl (stereo not drawn) [Compound 227] |  |

Further lines, the compound ahead of its results:

| Compound | IC50 [1, 4] | IC50 [2, 5] | IC50 [3, 6] | also measured |
| --- | --- | --- | --- | --- |
| COc1ccc(OC(=O)NC2CCN(CC3CC4c5ccccc5Cc5ccc(F)cc5C4O3)CC2)cc1 (stereo not drawn) [Compound 219] |  |  |  | IC50 ([1]; NET pIC50, rat brain cortex): > 10000 nM; IC50 ([2]; 5-HT2C pIC50, human cloned 5-HT2C receptor): 3.98 nM; IC50 ([3]; D2L pIC50, human D2L receptor-transfected CHO cell membranes): 3.39 nM |
| O=C(NC1CCN(CC2CC3c4ccccc4Cc4ccc(F)cc4C3O2)CC1)c1ccc(-c2ccccc2)cc1 (stereo not drawn) [Compound 237] | 7940 nM | 38 nM | 58.9 nM |  |
| COC(=O)NC1CCN(CC2CC3c4ccccc4Cc4ccc(F)cc4C3O2)CC1 (stereo not drawn) [Compound 210] | 7410 nM | 4.17 nM | 7.94 nM |  |
| Cc1cccc(C(=O)NC2CCN(CC3CC4c5ccccc5Cc5ccc(F)cc5C4O3)CC2)c1 (stereo not drawn) [Compound 225] | 5250 nM | 11.2 nM | 6.03 nM |  |
| O=C(O)C(=O)O.O[C@H]1CCN(C[C@H]2C[C@@H]3c4ccccc4Cc4ccc(F)cc4[C@@H]3O2)C1 [Compound 3] |  |  |  | NET pIC50 ([1]; rat brain cortex): 5.45; 5-HT2C pIC50 ([2]; human cloned 5-HT2C receptor): 9.57; D2L pIC50 [3, 7]: 8.01 |
| N#Cc1ccc2c(c1)C1CC(CN3CCC(O)C3)OC1c1cc(F)ccc1S2.O=C(O)C(=O)O (mixture of isomers) [Compound 259] |  |  |  | NET pIC50 ([1]; rat brain cortex): 5.38; 5-HT2C pIC50 ([2]; human cloned 5-HT2C receptor): 7.64; D2L pIC50 [3, 7]: 6.59 |
| O=C(NC1CCN(CC2CC3c4ccccc4Cc4ccc(F)cc4C3O2)CC1)c1cccc(Cl)c1Cl (stereo not drawn) [Compound 228] | 7940 nM | 20.9 nM | 9.12 nM |  |
| N#CC1(c2ccccc2)CCN(C(=O)C2CCN(CC3CC4c5ccccc5Cc5ccc(F)cc5C4O3)CC2)CC1 (stereo not drawn) [Compound 208] | > 10000 nM | 7.94 nM | 22.9 nM |  |
| C#CCOC(=O)NC1CCN(CC2CC3c4ccccc4Cc4ccc(F)cc4C3O2)CC1 (stereo not drawn) [Compound 217] | 8910 nM | 4.07 nM | 4.9 nM |  |

Source: patent US8569267B2, “Tetracyclic tetrahydrofuran derivatives containing cyclic amine side chain” (Janssen Pharmaceutica, NV, priority 2005, dated 2013)
